These are literature values, as cited in patent US9095515B2, “Ezetimibe compositions” (Sanovel Ilac Sanayi Ve Ticaret Anonim Sirketi, priority 2009, dated 2015).

For this data set the following is noted: reported.

On to `O=C1[C@H](CC[C@H](O)c2ccc(F)cc2)[C@@H](c2ccc(O)cc2)N1c1ccc(F)cc1` [Ezetimibe, (3R,4S)-1-(4-fluorophenyl)-3-[(3S)-3-(4-fluorophenyl)-3-hydroxypropyl]-4-(4-hydroxyphenyl)azetidin-2-one], for which the solubility in water result is “practically insoluble”.
